Assay results as given in patent publication US20260274829A1, “NEW E3 UBIQUITIN LIGASE LIGAND, PROTEIN DEGRADATION AGENT AND USE THEREOF” (GLUETACS THERAPEUTICS (SHANGHAI) CO., LTD., priority 2023, published 2026).

Experiments:
MM.1S (MM1S) = assay: CCK-8 tumor cell proliferation IC50, MM.1S; conditions: MM.1S cells, compounds designed based on the IRAK4 inhibitors, read-out: Inhibitory activity (IC50, nM) on tumor cell proliferation, MM.1S
Procedure: (§1) The tumor cells used herein were cultured in a cell culture medium listed in table A1 at 37° C. in an incubator with 5% CO2. Prior to experimentation, all cell lines used were correctly identified by STR profiling, and tested negative for mycoplasma contamination using a mycoplasma detection kit through routine screenings.
(§2) IC50 values of the compounds of the present disclosure (including the compounds in Table 1, and compounds of examples) were measured using the Meilun Cell Counting Kit-8 kit from Dalian Meilun Biotech Co., Ltd. Assay details are as follows: tumor cells were seeded in a 96-well plate at a density listed in Table A2. After 24 h, 100 μL of the inoculated cells were treated with 0.5 μL of the compounds of the present disclosure (including the compounds in Tables 1 and 2, and compounds of examples) at 10 different successively decreasing concentrations (starting at the highest concentration of 1 μM; 5-fold serial dilutions). After the cells were treated with the compounds of the present disclosure for a period of time, the cell viability detection reagent was added to the culture medium for cell viability assessment according to the instructions provided with the CCK-8 kit. […] The growth inhibition of the compounds of the present disclosure on cells was plotted by Prism Graphpad software, and the IC50 values of the compounds of the present disclosure were calculated therefrom.

[1] = system: MGC-803 (MGC80-3, MGC803); assay: CCK-8 tumor cell proliferation IC50, MGC-803; set-up: species or system human; conditions: MGC803 cells, compounds designed based on the IRAK4 inhibitors, read-out: Inhibitory activity (IC50, nM) on tumor cell proliferation, MGC803
Procedure: as §1, §2

H1299 = assay: CCK-8 tumor cell proliferation IC50, H1299; set-up: species or system human; conditions: H1299 cells, compounds designed based on the IRAK4 inhibitors, read-out: Inhibitory activity (IC50, nM) on tumor cell proliferation, H1299
Procedure: as §1, §2

WEE1 = biological target: T1, WEE1 (Homo sapiens, UniProt P30291+Q96SW2); assay: Western blot degradation of WEE1 in hPBMC; format: cell-based
T1 construct: endogenous in cells; host or cells: hPBMC
Summary of the method: (§3)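 hPBMC treated with degraders, lysates run on SDS-PAGE and Western blotted; band grayscale measured against DMSO controls. DC50 from fitted concentration-response curve at half control intensity. Remaining target protein (%) = target band normalized to internal control band, relative to untreated.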

IKZF1 = biological target: T2, IKZF1 (Homo sapiens, UniProt Q13422+Q96SW2); assay: Western blot degradation of IKZF1 in hPBMC; format: cell-based
T2 construct: endogenous in cells; host or cells: hPBMC
Summary of the method: as §3

IKZF2 = biological target: T3, IKZF2 (Homo sapiens, UniProt Q96SW2+Q9UKS7); assay: Western blot degradation of IKZF2 in hPBMC; format: cell-based
T3 construct: endogenous in cells; host or cells: hPBMC
Summary of the method: as §3

IKZF3 = biological target: T4, IKZF3 (Homo sapiens, UniProt Q96SW2+Q9UKT9); assay: Western blot degradation of IKZF3 in hPBMC; format: cell-based
T4 construct: endogenous in cells; host or cells: hPBMC
Summary of the method: as §3

CK1a = biological target: T5, CK1a (Homo sapiens, UniProt P48729+Q96SW2); assay: Western blot degradation of CK1a in hPBMC; format: cell-based
T5 construct: endogenous in cells; host or cells: hPBMC
Summary of the method: as §3

GSPT1 = biological target: T6, GSPT1 (Homo sapiens, UniProt P15170+Q96SW2); assay: Western blot degradation of GSPT1 in hPBMC; format: cell-based
T6 construct: endogenous in cells; host or cells: hPBMC
Summary of the method: as §3

T4 sequence (Q9UKT9 whole entry): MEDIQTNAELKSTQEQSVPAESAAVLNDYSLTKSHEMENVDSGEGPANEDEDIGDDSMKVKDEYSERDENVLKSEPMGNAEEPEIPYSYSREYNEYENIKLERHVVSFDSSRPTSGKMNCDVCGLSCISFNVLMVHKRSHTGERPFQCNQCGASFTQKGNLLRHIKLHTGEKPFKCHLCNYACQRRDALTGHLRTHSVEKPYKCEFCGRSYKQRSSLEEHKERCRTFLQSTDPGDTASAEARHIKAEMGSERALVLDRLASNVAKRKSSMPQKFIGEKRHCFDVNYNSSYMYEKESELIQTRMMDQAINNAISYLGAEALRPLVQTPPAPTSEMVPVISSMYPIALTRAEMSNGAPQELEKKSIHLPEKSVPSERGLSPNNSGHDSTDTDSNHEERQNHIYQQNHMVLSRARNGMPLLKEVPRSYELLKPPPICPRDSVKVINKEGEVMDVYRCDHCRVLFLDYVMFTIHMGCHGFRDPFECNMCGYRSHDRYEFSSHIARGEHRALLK
T4 sequence (Q96SW2 whole entry): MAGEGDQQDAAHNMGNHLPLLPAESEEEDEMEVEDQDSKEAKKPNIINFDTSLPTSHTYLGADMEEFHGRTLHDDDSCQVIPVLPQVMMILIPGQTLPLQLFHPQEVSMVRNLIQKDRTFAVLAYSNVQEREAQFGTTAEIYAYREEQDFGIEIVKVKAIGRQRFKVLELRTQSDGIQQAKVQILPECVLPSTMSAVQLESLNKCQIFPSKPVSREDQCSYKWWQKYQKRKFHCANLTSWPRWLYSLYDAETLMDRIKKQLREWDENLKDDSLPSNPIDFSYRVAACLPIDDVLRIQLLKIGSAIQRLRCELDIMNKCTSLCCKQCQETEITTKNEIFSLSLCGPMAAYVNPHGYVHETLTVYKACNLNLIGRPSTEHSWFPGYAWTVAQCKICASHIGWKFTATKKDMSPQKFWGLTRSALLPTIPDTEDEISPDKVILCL
T4 sequence (Q16531 whole entry partner): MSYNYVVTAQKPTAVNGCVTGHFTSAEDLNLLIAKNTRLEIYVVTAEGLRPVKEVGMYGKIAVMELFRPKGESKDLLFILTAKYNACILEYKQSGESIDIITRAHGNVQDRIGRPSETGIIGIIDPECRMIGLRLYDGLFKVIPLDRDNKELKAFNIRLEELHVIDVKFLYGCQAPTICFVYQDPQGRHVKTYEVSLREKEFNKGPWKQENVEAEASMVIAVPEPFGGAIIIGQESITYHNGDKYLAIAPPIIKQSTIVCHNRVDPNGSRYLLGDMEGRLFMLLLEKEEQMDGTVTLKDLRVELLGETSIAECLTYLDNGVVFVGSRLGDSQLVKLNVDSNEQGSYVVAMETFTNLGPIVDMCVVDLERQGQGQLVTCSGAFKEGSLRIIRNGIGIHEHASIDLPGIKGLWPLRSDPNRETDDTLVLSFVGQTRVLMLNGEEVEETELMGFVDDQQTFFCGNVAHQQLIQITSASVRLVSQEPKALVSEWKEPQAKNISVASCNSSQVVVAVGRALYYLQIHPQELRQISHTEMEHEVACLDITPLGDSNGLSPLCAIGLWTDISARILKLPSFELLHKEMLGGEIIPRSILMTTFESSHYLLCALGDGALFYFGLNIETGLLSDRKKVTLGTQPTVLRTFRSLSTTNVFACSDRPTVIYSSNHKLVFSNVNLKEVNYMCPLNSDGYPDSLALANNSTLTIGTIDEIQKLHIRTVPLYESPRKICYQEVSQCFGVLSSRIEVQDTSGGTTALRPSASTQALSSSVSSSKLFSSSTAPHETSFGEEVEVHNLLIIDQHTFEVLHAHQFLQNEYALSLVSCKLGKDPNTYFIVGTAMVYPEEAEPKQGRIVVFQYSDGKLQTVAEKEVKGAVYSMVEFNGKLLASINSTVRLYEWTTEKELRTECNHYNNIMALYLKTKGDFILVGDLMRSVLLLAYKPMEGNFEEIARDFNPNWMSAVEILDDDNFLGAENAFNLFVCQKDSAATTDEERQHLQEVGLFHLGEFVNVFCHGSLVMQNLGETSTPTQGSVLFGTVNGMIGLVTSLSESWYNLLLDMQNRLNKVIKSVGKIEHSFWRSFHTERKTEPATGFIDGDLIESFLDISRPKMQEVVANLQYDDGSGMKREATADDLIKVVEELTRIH
T1 sequence (P30291 whole entry): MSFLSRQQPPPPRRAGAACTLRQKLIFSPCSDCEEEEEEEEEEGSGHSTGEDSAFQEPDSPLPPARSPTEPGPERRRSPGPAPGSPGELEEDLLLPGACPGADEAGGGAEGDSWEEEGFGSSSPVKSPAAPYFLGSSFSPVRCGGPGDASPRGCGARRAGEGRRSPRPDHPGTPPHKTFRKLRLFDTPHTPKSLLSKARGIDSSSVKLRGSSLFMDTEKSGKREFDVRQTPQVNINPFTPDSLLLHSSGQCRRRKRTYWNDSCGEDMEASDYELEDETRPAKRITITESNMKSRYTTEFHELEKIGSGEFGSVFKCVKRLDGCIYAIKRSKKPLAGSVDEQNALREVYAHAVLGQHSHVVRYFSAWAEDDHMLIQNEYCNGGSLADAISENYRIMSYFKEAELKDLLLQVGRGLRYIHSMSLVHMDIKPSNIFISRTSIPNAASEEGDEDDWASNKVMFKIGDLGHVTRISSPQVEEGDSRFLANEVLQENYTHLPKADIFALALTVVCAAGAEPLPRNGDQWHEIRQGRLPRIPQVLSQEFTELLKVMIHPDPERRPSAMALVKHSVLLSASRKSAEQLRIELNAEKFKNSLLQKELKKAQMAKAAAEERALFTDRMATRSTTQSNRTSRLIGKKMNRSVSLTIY
T1 sequence (Q96SW2 whole entry): as the sequence (Q96SW2 whole entry) above
T1 sequence (Q16531 whole entry partner): as the sequence (Q16531 whole entry partner) above
T2 sequence (Q13422 whole entry): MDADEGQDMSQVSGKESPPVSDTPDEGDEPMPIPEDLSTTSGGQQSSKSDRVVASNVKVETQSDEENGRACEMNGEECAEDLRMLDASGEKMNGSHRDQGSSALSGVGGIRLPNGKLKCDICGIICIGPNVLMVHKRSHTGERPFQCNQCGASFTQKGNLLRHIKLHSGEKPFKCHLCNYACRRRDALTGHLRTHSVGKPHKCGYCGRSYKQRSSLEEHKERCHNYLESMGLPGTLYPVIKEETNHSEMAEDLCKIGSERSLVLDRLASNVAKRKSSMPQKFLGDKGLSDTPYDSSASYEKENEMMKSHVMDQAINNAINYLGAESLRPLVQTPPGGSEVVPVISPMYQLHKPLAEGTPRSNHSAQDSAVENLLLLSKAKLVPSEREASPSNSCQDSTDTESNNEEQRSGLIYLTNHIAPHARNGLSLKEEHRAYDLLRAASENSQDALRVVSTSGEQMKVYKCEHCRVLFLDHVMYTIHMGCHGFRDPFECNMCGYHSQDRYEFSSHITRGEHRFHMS
T2 sequence (Q96SW2 whole entry): as the sequence (Q96SW2 whole entry) above
T2 sequence (Q16531 whole entry partner): as the sequence (Q16531 whole entry partner) above
T6 sequence (P15170 whole entry): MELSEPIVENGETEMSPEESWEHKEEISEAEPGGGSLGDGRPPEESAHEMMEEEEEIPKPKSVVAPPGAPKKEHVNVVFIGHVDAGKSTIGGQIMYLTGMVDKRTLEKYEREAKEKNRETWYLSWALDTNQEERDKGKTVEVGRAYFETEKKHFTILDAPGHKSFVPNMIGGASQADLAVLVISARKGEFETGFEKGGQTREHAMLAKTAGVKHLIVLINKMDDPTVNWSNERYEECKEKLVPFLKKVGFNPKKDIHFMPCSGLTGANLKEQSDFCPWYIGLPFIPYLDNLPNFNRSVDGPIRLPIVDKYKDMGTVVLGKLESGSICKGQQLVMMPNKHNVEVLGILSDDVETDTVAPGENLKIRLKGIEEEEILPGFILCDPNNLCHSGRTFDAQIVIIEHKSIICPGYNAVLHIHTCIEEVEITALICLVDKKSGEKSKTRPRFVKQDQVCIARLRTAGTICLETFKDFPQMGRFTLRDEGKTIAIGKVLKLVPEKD
T6 sequence (Q96SW2 whole entry): as the sequence (Q96SW2 whole entry) above
T6 sequence (Q16531 whole entry partner): as the sequence (Q16531 whole entry partner) above
T5 sequence (P48729 whole entry): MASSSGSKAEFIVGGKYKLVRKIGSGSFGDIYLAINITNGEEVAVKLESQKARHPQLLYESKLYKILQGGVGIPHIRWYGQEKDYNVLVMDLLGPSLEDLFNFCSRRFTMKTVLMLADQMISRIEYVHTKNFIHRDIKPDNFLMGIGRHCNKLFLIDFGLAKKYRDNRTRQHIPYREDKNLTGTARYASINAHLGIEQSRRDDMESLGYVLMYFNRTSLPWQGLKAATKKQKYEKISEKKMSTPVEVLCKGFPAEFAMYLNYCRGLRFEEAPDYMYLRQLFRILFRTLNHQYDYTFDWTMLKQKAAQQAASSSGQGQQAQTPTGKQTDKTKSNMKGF
T5 sequence (Q96SW2 whole entry): as the sequence (Q96SW2 whole entry) above
T5 sequence (Q16531 whole entry partner): as the sequence (Q16531 whole entry partner) above

O=C1CCC(c2ccc(CN3CCN(c4ccc5c(c4)nc(NC(=O)c4cccc(C(F)(F)F)c4)n5C4CCC(CO)CC4)CC3)cc2)C(=O)N1 (centres unmarked) [GT-04981, N-(5-(4-(4-(2,6-dioxopiperidin-3-yl)benzyl)piperazin-1-yl)-1-((1s,4s)-4-(hydroxymethyl)cyclohexyl)-1H-benzo[d]imidazol-2-yl)-3-(trifluoromethyl)benzamide]
IC50 (MM.1S (MM1S)): 100 to 500 nM | IC50 [1]: 500 to 1000 nM | IC50 (H1299): 500 to 1000 nM

O=C1CCN(c2ccc(CN3CCN(c4ccc5c(c4)nc(NC(=O)c4cccc(C(F)(F)F)c4)n5[C@H]4CC[C@@H](CO)CC4)CC3)cc2)C(=O)N1 [GT-04982, N-(5-(4-(4-(2,4-dioxotetrahydropyrimidin-1(2H)-yl)benzyl)piperazin-1-yl)-1-((1s,4s)-4-(hydroxymethyl)cyclohexyl)-1H-benzo[d]imidazol-2-yl)-3-(trifluoromethyl)benzamide]
IC50 (MM.1S (MM1S)): 50 to 100 nM | IC50 [1]: 100 to 500 nM | IC50 (H1299): 100 to 500 nM

O=C1CCC(Nc2cccc(CN3CCN(Cc4ccc5c(c4)nc(NC(=O)c4cccc(C(F)(F)F)c4)n5C4CCC(CO)CC4)CC3)c2)C(=O)N1 (centres unmarked) [GT-04976, N-(5-((4-(3-((2,6-dioxopiperidin-3-yl)amino)benzyl)piperazin-1-yl)methyl)-1-((1s,4s)-4-(hydroxymethyl)cyclohexyl)-1H-benzo[d]imidazol-2-yl)-3-(trifluoromethyl)benzamide]
IC50 (MM.1S (MM1S)): 100 to 500 nM

O=C1CCC(Nc2cccc(CN3CCC(N4CCN(c5ccc6c(c5)nc(NC(=O)c5cccc(C(F)(F)F)c5)n6[C@H]5CC[C@@H](CO)CC5)CC4)CC3)c2)C(=O)N1 (some centres unmarked) [GT-05023, N-(5-(4-(1-(3-((2,6-dioxopiperidin-3-yl)amino)benzyl)piperidin-4-yl)piperazin-1-yl)-1-((1s,4s)-4-(hydroxymethyl)cyclohexyl)-1H-benzo[d]imidazol-2-yl)-3-(trifluoromethyl)benzamide]
IC50 (MM.1S (MM1S)): 500 to 1000 nM

O=Cc1ccnc(NC2CCC(=O)NC2=O)c1 (centres unmarked) [GT-07553, 2-((2,6-dioxopiperidin-3-yl)amino)isonicotinaldehyde]
Degradation of substrate protein WEE1 (substrate protein remaining %) (WEE1): A (A is defined as 0% ≤ substrate protein remaining % ≤ 80%) | Degradation of substrate protein IKZF1 (substrate protein remaining %) (IKZF1): A (A is defined as 0% ≤ substrate protein remaining % ≤ 80%) | Degradation of substrate protein IKZF2 (substrate protein remaining %) (IKZF2): A (A is defined as 0% ≤ substrate protein remaining % ≤ 80%) | Degradation of substrate protein IKZF3 (substrate protein remaining %) (IKZF3): B (B is defined as substrate protein remaining % > 80%) | Degradation of substrate protein CK1a (substrate protein remaining %) (CK1a): B (B is defined as substrate protein remaining % > 80%) | Degradation of substrate protein GSPT1 (substrate protein remaining %) (GSPT1): B (B is defined as substrate protein remaining % > 80%)

O=C1CCC(c2ncccc2CO)C(=O)N1 (centres unmarked) [GT-07370, 3-(3-(hydroxymethyl)pyridin-2-yl)piperidine-2,6-dione]
Degradation of substrate protein WEE1 (substrate protein remaining %) (WEE1): B (B is defined as substrate protein remaining % > 80%) | Degradation of substrate protein IKZF1 (substrate protein remaining %) (IKZF1): B (B is defined as substrate protein remaining % > 80%) | Degradation of substrate protein IKZF2 (substrate protein remaining %) (IKZF2): B (B is defined as substrate protein remaining % > 80%) | Degradation of substrate protein IKZF3 (substrate protein remaining %) (IKZF3): B (B is defined as substrate protein remaining % > 80%) | Degradation of substrate protein CK1a (substrate protein remaining %) (CK1a): A (A is defined as 0% ≤ substrate protein remaining % ≤ 80%) | Degradation of substrate protein GSPT1 (substrate protein remaining %) (GSPT1): A (A is defined as 0% ≤ substrate protein remaining % ≤ 80%)

CC(C)(C)[Si](C)(C)OCc1ccc(NC2CCC(=O)NC2=O)cn1 (centres unmarked) [GT-07445, 3-((6-(((tert-butyldimethylsilyl)oxy)methyl)pyridin-3-yl)amino)piperidine-2,6-dione]
Degradation of substrate protein WEE1 (substrate protein remaining %) (WEE1): A (A is defined as 0% ≤ substrate protein remaining % ≤ 80%) | Degradation of substrate protein IKZF1 (substrate protein remaining %) (IKZF1): A (A is defined as 0% ≤ substrate protein remaining % ≤ 80%) | Degradation of substrate protein IKZF2 (substrate protein remaining %) (IKZF2): B (B is defined as substrate protein remaining % > 80%) | Degradation of substrate protein IKZF3 (substrate protein remaining %) (IKZF3): B (B is defined as substrate protein remaining % > 80%) | Degradation of substrate protein CK1a (substrate protein remaining %) (CK1a): A (A is defined as 0% ≤ substrate protein remaining % ≤ 80%) | Degradation of substrate protein GSPT1 (substrate protein remaining %) (GSPT1): A (A is defined as 0% ≤ substrate protein remaining % ≤ 80%)

O=C1CCC(c2ccc(CO)nc2)C(=O)N1 (centres unmarked) [GT-07010, 3-(6-(hydroxymethyl)pyridin-3-yl)piperidine-2,6-dione]
Degradation of substrate protein WEE1 (substrate protein remaining %) (WEE1): B (B is defined as substrate protein remaining % > 80%) | Degradation of substrate protein IKZF1 (substrate protein remaining %) (IKZF1): B (B is defined as substrate protein remaining % > 80%) | Degradation of substrate protein IKZF2 (substrate protein remaining %) (IKZF2): B (B is defined as substrate protein remaining % > 80%) | Degradation of substrate protein IKZF3 (substrate protein remaining %) (IKZF3): A (A is defined as 0% ≤ substrate protein remaining % ≤ 80%) | Degradation of substrate protein CK1a (substrate protein remaining %) (CK1a): A (A is defined as 0% ≤ substrate protein remaining % ≤ 80%) | Degradation of substrate protein GSPT1 (substrate protein remaining %) (GSPT1): A (A is defined as 0% ≤ substrate protein remaining % ≤ 80%)

CC(C)(C)[Si](C)(C)OCc1ccncc1NC1CCC(=O)NC1=O (centres unmarked) [GT-07638, 3-((4-(((tert-butyldimethylsilyl)oxy)methyl)pyridin-3-yl)amino)piperidine-2,6-dione]
Degradation of substrate protein WEE1 (substrate protein remaining %) (WEE1): A (A is defined as 0% ≤ substrate protein remaining % ≤ 80%) | Degradation of substrate protein IKZF1 (substrate protein remaining %) (IKZF1): B (B is defined as substrate protein remaining % > 80%) | Degradation of substrate protein IKZF2 (substrate protein remaining %) (IKZF2): A (A is defined as 0% ≤ substrate protein remaining % ≤ 80%) | Degradation of substrate protein IKZF3 (substrate protein remaining %) (IKZF3): A (A is defined as 0% ≤ substrate protein remaining % ≤ 80%) | Degradation of substrate protein CK1a (substrate protein remaining %) (CK1a): B (B is defined as substrate protein remaining % > 80%) | Degradation of substrate protein GSPT1 (substrate protein remaining %) (GSPT1): A (A is defined as 0% ≤ substrate protein remaining % ≤ 80%)

O=C1CCC(c2cnc(CO)c(F)c2)C(=O)N1 (centres unmarked) [GT-07049, 3-(5-fluoro-6-(hydroxymethyl)pyridin-3-yl)piperidine-2,6-dione]
Degradation of substrate protein WEE1 (substrate protein remaining %) (WEE1): B (B is defined as substrate protein remaining % > 80%) | Degradation of substrate protein IKZF1 (substrate protein remaining %) (IKZF1): B (B is defined as substrate protein remaining % > 80%) | Degradation of substrate protein IKZF2 (substrate protein remaining %) (IKZF2): A (A is defined as 0% ≤ substrate protein remaining % ≤ 80%) | Degradation of substrate protein IKZF3 (substrate protein remaining %) (IKZF3): A (A is defined as 0% ≤ substrate protein remaining % ≤ 80%) | Degradation of substrate protein CK1a (substrate protein remaining %) (CK1a): A (A is defined as 0% ≤ substrate protein remaining % ≤ 80%) | Degradation of substrate protein GSPT1 (substrate protein remaining %) (GSPT1): A (A is defined as 0% ≤ substrate protein remaining % ≤ 80%)

O=C1CCC(c2ncc(CO)cc2F)C(=O)N1 (centres unmarked) [GT-07443, 3-(3-fluoro-5-(hydroxymethyl)pyridin-2-yl)piperidine-2,6-dione]
Degradation of substrate protein WEE1 (substrate protein remaining %) (WEE1): A (A is defined as 0% ≤ substrate protein remaining % ≤ 80%) | Degradation of substrate protein IKZF1 (substrate protein remaining %) (IKZF1): A (A is defined as 0% ≤ substrate protein remaining % ≤ 80%) | Degradation of substrate protein IKZF2 (substrate protein remaining %) (IKZF2): A (A is defined as 0% ≤ substrate protein remaining % ≤ 80%) | Degradation of substrate protein IKZF3 (substrate protein remaining %) (IKZF3): B (B is defined as substrate protein remaining % > 80%) | Degradation of substrate protein CK1a (substrate protein remaining %) (CK1a): A (A is defined as 0% ≤ substrate protein remaining % ≤ 80%) | Degradation of substrate protein GSPT1 (substrate protein remaining %) (GSPT1): A (A is defined as 0% ≤ substrate protein remaining % ≤ 80%)
